How the values were obtained:
[1] = test system: Toledo cells; assay: Cell proliferation assay, Toledo cells (MTS, 72 h); type: cell-based; details: Homo sapiens, Toledo cells, MTS, read-out: Toledo IC50
Summary of the method: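 IC50 was derived from 490 nm absorbance after a 2 h MTS step. Before that, compounds at 1.5–10000 nM final (nine points) acted on Toledo cells for 72 h at 37 °C, 5% CO2. Cells were seeded at 30000/well in 10% FBS RPMI-1640 and rested 4 h before dosing.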

[2] = test system: RS4;11-BCL-2 F104L cells; assay: Cell proliferation assay, engineered RS4;11 cells stably overexpressing BCL-2 F104L (MTS, 168 h); type: cell-based; details: Homo sapiens, read-out: RS4, 11 BCL2-F104L
Experimental: MTS testing kit was purchased from Promega (Madison, Wis., USA). The RPMI-1640, Fetal bovine serum and Penicillin-Streptomycin were purchased from BI (Biological Industries, Beit Haemek, Israel). Puromycin was purchased from Beyotime (shanghai, China). Dimethyl sulfoxide (DMSO) was purchased from Sigma (St. Louis, Mo., USA). RS4;1l-BCL-2 G101V and RS4;11-BCL-2 F104L cells were cultured in RPM11640 supplemented with 1 ug/mL puromycin, 100 U/mL Penicillin-Streptomycin and 10% FBS.
To investigate whether a compound is able to inhibit the activity of BCL-2 mutation in cells, a mechanism-based assay using engineered cell lines stably overexpressing BCL-2 mutation ([…] and […]) was developed. In this assay, the inhibition of BCL-2 mutation was reflected by the inhibition of cell proliferation of RS4;11-BCL-2 G101V and RS4;11-BCL-2 F104L cells. Cells were plated into 96-well plates at optimized cell density (RS4;11-BCL-2 G101V: 5000 cells/well; RS4;11-BCL-2 F104L: 5000 cells/well). Plates were incubated at 37° C., with 5% CO2 for 4 h. Compounds were serially diluted to the final-concentrations of 10000, 3333.3, 1111.1, 370.4, 123.5, 41.2, 13.7, 4.6 and 1.4 nM and added to the plates. Plates were incubated at 37° C., with 5% CO2 for 168 h. 20 μl MTS was added into each well and the plates were incubated at 37° C., with 5% CO2 exactly for 2 h. The absorbance was measured by a microplate reader at 490 nm. IC50 values were calculated using GraphPad Prism 5.0 software.

Row | IC50 [2] [nM] | Compound | IC50 [1] [nM]
1 | 1 | CC(C)c1ccccc1[C@@H]1CCC[C@@H]1N1CC2(CCN(c3ccc(C(=O)NS(=O)(=O)c4ccc(NC[C@H]5CC[C@](C)(O)CC5)c([N+](=O)[O-])c4)c(Oc4cc5cc[nH]c5nc4F)c3)CC2)C1 (single isomer, unassigned) [Example D-116, 2-((6-fluoro-1H-pyrrolo[2,3-b]pyridin-5-yl)oxy)-N-((4-((1r,4r)-4-hydroxy-4-methylcyclohexyl)methyl)amino)-3-nitrophenyl) sulfonyl)-4-(2-((1S,2S or 1R,2R)-2-(2-isopropylphenyl) cyclopentyl)-2,7-diazaspiro[3.5] nonan-7-yl)benzamide] | 1
2 | 1 | CC(C)c1ccccc1[C@@H]1CCC[C@@H]1N1CC2(CCN(c3ccc(C(=O)NS(=O)(=O)c4cc5c(c([N+](=O)[O-])c4)N[C@@H]([C@H]4CC[C@](C)(O)CC4)CO5)c(Oc4cc5cc[nH]c5nc4F)c3)CC2)C1 (single isomer, unassigned) [Example D-117, 2-((6-fluoro-1H-pyrrolo[2,3-b]pyridin-5-yl)oxy)-N-(((S)-3-((1r,4S)-4-hydroxy-4-methylcyclohexyl)-5-nitro-3,4-dihydro-2H-benzo[b] [1,4]oxazin-7-yl)sulfonyl)-4-(2-((1S,2S or 1R,2R)-2-(2-isopropylphenyl)cyclopentyl)-2,7-diazaspiro[3.5]nonan-7-yl)benzamide] | 1
3 | 8 | COc1nc2[nH]cc(F)c2cc1Oc1cc(N2CCC3(CC2)CN([C@H]2CCC[C@H]2c2ccccc2C(C)C)C3)ccc1C(=O)NS(=O)(=O)c1ccc(NC[C@H]2CC[C@](C)(O)CC2)c([N+](=O)[O-])c1 (single isomer, unassigned) [Example D-109, 2-((3-fluoro-6-methoxy-1H-pyrrolo [2,3-b]pyridin-5-yl)oxy)-N-((4-((((1r,4r)-4-hydroxy-4-methylcyclohexyl)methyl)amino)-3-nitrophenyl)sulfonyl)-4-(2-((1S,2S or 1R,2R)-2-(2-isopropylphenyl)cyclopentyl)-2,7-diazaspiro[3.5]nonan-7-yl)benzamide] | 1
4 | 1 | CC(C)c1ccccc1[C@@H]1CCCN1C1CC2(CCN(c3ccc(C(=O)NS(=O)(=O)c4cc5c(c([N+](=O)[O-])c4)N[C@@H]([C@H]4CC[C@](C)(O)CC4)CO5)c(Oc4cc5cc[nH]c5nc4OC[C@H]4COCCO4)c3)CC2)C1 (single isomer, unassigned) [Example D-252, 2-((6-(((R)-1,4-dioxan-2-yl)methoxy)-1H-pyrrolo[2,3-b]pyridin-5-yl)oxy)-N-(((S)-3-((1r,4S)-4-hydroxy-4-methylcyclohexyl)-5-nitro-3,4-dihydro-2H-benzo[b][1,4]oxazin-7-yl)sulfonyl)-4-(2-((R or S)-2-(2-isopropylphenyl)pyrrolidin-1-yl)-7-azaspiro[3.5]nonan-7-yl)benzamide] | 1
5 | 34 | COc1nc2[nH]ccc2cc1Oc1cc(N2CCC3(CC2)CC(N2CCC[C@H]2c2ccccc2C(C)C)C3)ccc1C(=O)NS(=O)(=O)c1cc2c(c([N+](=O)[O-])c1)N[C@@H]([C@H]1CC[C@](C)(O)CC1)CO2 (single isomer, unassigned) [Example D-10, N-(((S)-3-((1r,4S)-4-hydroxy-4-methylcyclohexyl)-5-nitro-3,4-dihydro-2H-benzo[b][1,4]oxazin-7-yl)sulfonyl)-4-(2-((R or S)-2-(2-isopropylphenyl)pyrrolidin-1-yl)-7-azaspiro[3.5]nonan-7-yl)-2-((6-methoxy-1H-pyrrolo [2,3-b]pyridin-5-yl)oxy)benzamide] | 1
6 | 23 | CCc1nc2[nH]cc(F)c2cc1Oc1cc(N2CCC3(CC2)CN([C@H]2CCC[C@H]2c2ccccc2C(C)C)C3)ccc1C(=O)NS(=O)(=O)c1cnc(NC[C@H]2CC[C@](C)(O)CC2)c([N+](=O)[O-])c1 (single isomer, unassigned) [Example A-157, 2-((6-ethyl-3-fluoro-1H-pyrrolo[2,3-b]pyridin-5-yl)oxy)-N-((6-((((1r,4r) 4-hydroxy-4-methylcyclohexyl)methyl)amino)-5-nitropyridin-3-yl)sulfonyl)-4-(2-((1S,2S or 1R,2R)-2-(2-isopropylphenyl)cyclo-pentyl)-2,7-diazaspiro[3.5]nonan-7-yl) benzamide] | 
7 | 10 | CCc1nc2[nH]cc(F)c2cc1Oc1cc(N2CCC3(CC2)CN([C@H]2CCC[C@H]2c2ccccc2C(C)C)C3)ccc1C(=O)NS(=O)(=O)c1ccc(NC[C@H]2CC[C@](C)(O)CC2)c([N+](=O)[O-])c1 (single isomer, unassigned) [Example D-235, 2-((6-ethyl-3-fluoro-1H-pyrrolo [2,3-b]pyridin-5-yl)oxy)-N-((4-(((1r,4r)-4-hydroxy-4-methylcyclohexyl)methyl)amino)-3-nitrophenyl) sulfonyl)-4-(2-((1S,2S or 1R,2R)-2-(2-isopropylphenyl)cyclopentyl)-2,7-diazaspiro[3.5] nonan-7-yl)benzamide] | 
8 | 5 | CCc1nc2[nH]cc(F)c2cc1Oc1cc(N2CCC3(CC2)CN([C@H]2CCC[C@H]2c2ccccc2C(C)C)C3)ccc1C(=O)NS(=O)(=O)c1cc2c(c([N+](=O)[O-])c1)N[C@@H]([C@H]1CC[C@](C)(O)CC1)CO2 (single isomer, unassigned) [Example D-239, 2-((6-ethyl-3-fluoro-1H-pyrrolo [2,3-b]pyridin-5-yl)oxy)-N-(((S)-3-((1r,4S)-4-hydroxy-4-methylcyclohexyl)-5-nitro-3,4-dihydro-2H-benzo[b][1,4]oxazin-7-yl)sulfonyl)-4-(2-((1S,2S or 1R,2R)-2-(2-isopropylphenyl)cyclopentyl)-2,7-diazaspiro[3.5]nonan-7-yl)benzamide] | 
9 | 11 | CO[C@@H](C)COc1nc2[nH]cc(F)c2cc1Oc1cc(N2CCC3(CC2)CN([C@H]2CCC[C@H]2c2ccccc2C(C)C)C3)ccc1C(=O)NS(=O)(=O)c1cc2c(c([N+](=O)[O-])c1)N[C@@H]([C@H]1CC[C@](C)(O)CC1)CO2 (single isomer, unassigned) [Example D-241a, 2-((3-fluoro-6-((S)-2-methoxypropoxy)-1H-pyrrolo[2,3-b]pyridin-5-yl)oxy)-N-((S)-3-((1r,4S)-4-hydroxy-4-methylcyclohexyl)-5-nitro-3,4-dihydro-2H-benzo[b][1,4]oxazin-7-yl)sulfonyl)-4-(2-((1S,2S or 1R,2R)-2-(2-isopropylphenyl)cyclopentyl)-2,7-diazaspiro[3.5]nonan-7-yl)benzamide] | 
10 | 15 | CCc1nc2[nH]cc(F)c2cc1Oc1cc(N2CCC3(CC2)CC(N2CCC[C@H]2c2ccccc2C(C)C)C3)ccc1C(=O)NS(=O)(=O)c1cc2c(c([N+](=O)[O-])c1)N[C@@H]([C@H]1CC[C@](C)(O)CC1)CO2 (single isomer, unassigned) [Example D-245, 2-((6-ethyl-3-fluoro-1H-pyrrolo [2,3-b]pyridin-5-yl)oxy)-N-(((S)-3-((1r,4S)-4-hydroxy-4-methylcyclohexyl)-5-nitro-3,4-dihydro-2H-benzo[b][1,4]oxazin-7-yl)sulfonyl)-4-(2-((R or S)-2-(2-isopropylphenyl)pyrrolidin-1-yl)-7-azaspiro[3.5]nonan-7-yl)benzamide] | 
